Data reported in PMC7696255, “In-Silico Identified New Natural Sortase A Inhibitors Disrupt S. aureus Biofilm Formation” (International Journal of Molecular Sciences, 2020).
≈ marks a conversion by molar mass, not a printed value. Where two headings read alike, the source gives them in different places.

How the values were obtained:
S. aureus sortase A [1] = biological target: T1, S. aureus sortase A (Staphylococcus aureus, UniProt Q2FV99); assay: SrtA enzyme inhibition FRET assay, DABCYL-LPETG-EDANS substrate; assay type: biochemical
T1 construct: purchased AnaSpec AS-72229
Method: (§1) The enzymatic reactions were carried out in black, low-binding polystyrene 384 well plates (Greiner Bio-One). […] SrtA was pre-incubated in the reaction buffer with compounds for 1 h at room temperature prior to the addition of the FRET substrate. Assays were performed in 50 µL reactions with 50 ng of S. aureus sortase A and 25 µM of DABCYL-LPETG-EDANS substrate or 1 µM of 5-FAM/QXL^TM 520 substrate. The inhibitory activity of the compounds was determined by monitoring the rise in fluorescence intensity over 24 h at Ex/Em = 336 nm/490 nm for the DABCYL/EDANS substrate and Ex/Em = 490 nm/520 nm for the 5-FAM/QXL 520 substrate on a Tecan Infinite M1000 Pro reader.
(§2) Raw fluorescence data were corrected for autofluorescence before computing percentage inhibition values. These percentage inhibition values were plotted against compound concentration using GraphPad Prism version 8.0 by nonlinear regression analysis using least squares fit method for IC50 determination. Testing was performed twice to ensure reproducibility of results.

S. aureus sortase A [2] = biological target: T1, S. aureus sortase A; assay: SrtA enzyme inhibition FRET assay, 5-FAM/QXL 520 substrate; assay type: biochemical; settings: Sortase A IC50, 5-FAM/QXL substrate; 10 min
Method: as §1, §2

S. aureus ATCC 25923 = assay: S. aureus whole cell assay (MIC, microbroth dilution); assay type: cell-based, Staphylococcus aureus
Method: (§3) Minimum inhibitory concentration (MIC) tests were performed according to procedures of the Clinical Laboratory Standards Institute (CLSI) with minor changes using the microbroth dilution technique in a 384-well setup. Inoculum of each S. aureus strain was prepared by suspending segregated colonies in sterile saline to a 0.5 McFarland standard. An inoculum of 2–8 × 10^5 CFU/mL was incubated with the compounds for 24 h at 37 °C. Gentamicin (data not shown) was incubated in the same manner as the test compounds and served as a positive control. The effect of the compounds on bacterial growth was calculated by quantifying the optical density at 600 nm on a microplate reader (Tecan, Infinite M1000, Salzburg, Austria). Dilutions of the inoculum were cultivated on agar to verify the validity of the inoculum seeding density and absence of contamination. All tests were executed in triplicate during two separate experiments.

[3] = system: S. aureus ATCC 33591 (MRSA); assay: as above; assay type: cell-based, Staphylococcus aureus; settings: 24 h
Method: as §3

S. aureus Newman = assay: as above; assay type: cell-based, Staphylococcus aureus; settings: 24 h
Method: as §3

A549 cells = assay: Mammalian cell cytotoxicity assay (PrestoBlue); assay type: cell-based, human; settings: read-out: Mammalian cell lines IC50
Method: (§4) A549 and HepG2 cells were seeded at 1500 and 2500 cells per well, respectively, in 384-well microplates and incubated at 37 °C in the presence of 5% CO2. The next day, cells were treated with compounds then incubated for an additional 72 h. To assess the cytotoxic effect of the compounds PrestoBlue cell viability reagent (Life Technologies, Carlsbad, CA, USA) was used. After the 72 h incubation with compounds, the 384-well assay plates were incubated with this viability indicator dye for 2 h (A549) and 4 h (HepG2) before fluorescence reading at Ex/Em = 560 nm/590 nm on the Tecan Infinite M1000 Pro reader. Puromycin (data not shown) was used as the positive control against both cell lines. All tests were executed in triplicate on two separate experiments.

HepG2 cells = assay: Mammalian cell cytotoxicity assay (PrestoBlue); assay type: cell-based, human; settings: read-out: Mammalian cell lines IC50
Method: as §4

[4] = system: S. aureus ATCC 33591 (MRSA) biofilm formation; assay: Biofilm inhibitory assay (crystal violet), biofilm formation; assay type: cell-based, Staphylococcus aureus
Method: (§5) The effectiveness of SrtA inhibitors in reducing biofilm formation and growth was assessed using the crystal violet (CV) biofilm assay with the following modifications. TSB with 2% glucose (TSB without glucose for E. coli) was inoculated with 10^5 CFU/mL of S. aureus and E. coli overnight cultures. A total of 90µl of this cell suspension was then dispensed into 96-well microtiter plates containing 10 µL of different concentrations of the SrtA inhibitors. After 24 h growth at 37 °C the plates were washed with PBS to remove unbound cells and heat fixed at 60 °C for 30 min. Next, the wells were stained with 0.1% crystal violet solution for 15 min at room temperature. At the completion of the incubation plates were washed 3 times with PBS and dried. Then the crystal violet dye from the biofilm was solubilized with 200 µL of DMSO. A total of 100 µL of this solution was then moved to a new microtiter plate for absorbance measurement at 595 nm. For pre-formed biofilm assay, the plates were prepared and incubated as mentioned earlier, without SrtA inhibitors. After 24 h incubation, the culture supernatant was removed gently and biofilm carefully washed with sterile PBS. Next, 10 µL of different concentrations of SrtA inhibitors with 90 µL of TSB with 2% glucose were added carefully into the wells and incubated at 37 °C for 24 h. The amount of crystal violet staining of biofilm was measured as described above. The results were reported as percent inhibition normalized to the wild type control. Two independent experiments were performed in triplicate to ensure reproducibility.

[5] = system: S. aureus Newman biofilm formation; assay: as above; assay type: cell-based, Staphylococcus aureus; settings: CV assay
Method: as §5

[6] = system: S. aureus ATCC 33591 (MRSA) pre-formed biofilms; assay: Biofilm inhibitory assay (crystal violet), pre-formed biofilms; assay type: cell-based, Staphylococcus aureus
Method: as §5

[7] = system: S. aureus Newman pre-formed biofilms; assay: as above; assay type: cell-based, Staphylococcus aureus; settings: CV assay
Method: as §5

[8] = system: E. coli ATCC 25922 biofilm formation; assay: Biofilm inhibitory assay (crystal violet), biofilm formation; assay type: cell-based; settings: in words; CV assay
Method: as §5, with “Next, 10 µL of different concentrations of SrtA inhibitors with 90 µL of TSB with 2% glucose were added carefully into the wells and incubated at 37 °C for 24 h.” left out, “The results were reported as percent inhibition normalized to the wild type control. Two independent experiments were performed in triplicate to ensure reproducibility.” left out

[9] = system: adherence of S. aureus Newman to fibrinogen; assay: Fibrinogen binding assay; assay type: cell-based, Staphylococcus aureus
Method: Fibrinogen binding assay was completed as described but with slight revision. A flat-bottom 96-well plate was covered with fibrinogen protein by adding 50 µL of 20 µg/mL of fibrinogen protein from bovine plasma diluted in saline and incubated at 4 °C for 24 h. The coated plates were gently rinsed twice with PBS and blocked for 60 min with 4% bovine serum albumin (BSA). The plates were then washed 3 times with PBS. For this assay, S. aureus Newman strain was cultivated in TSB at 37 °C to exponential phase (OD600 = 0.5) and then the bacterial culture was incubated with various concentrations of test compound or control for 2.5 h. Then the cells were pelleted by centrifugation at 10,000× g for 10 min, the supernatants were removed and the cell pellets stored at −20 °C. The following day, cell pellets were suspended in PBS and dispersed in 100 μL aliquots to distinct wells of fibrinogen-coated 96-well plates. After 2 h of growth at 37 °C, the bacterial supernatant was discarded and the wells were rinsed gently with 150 µl PBS. Then the bacterial cells were fixed with 2% (v/v) glutaraldehyde and incubated for 30 min at 25 °C. After a wash with PBS, bound cells were stained with 0.1% crystal violet dye for 15 min. Plates were rinsed twice again with PBS, enclosed with aluminum foil, then stored at room temperature to dry overnight. On the next day absorbance was measured at 570 nm. The results were described as the percent of adhesion inhibition normalized to the wild type control. Two independent experiments were performed in triplicate to ensure reproducibility.

T1 sequence (Q2FV99 whole entry): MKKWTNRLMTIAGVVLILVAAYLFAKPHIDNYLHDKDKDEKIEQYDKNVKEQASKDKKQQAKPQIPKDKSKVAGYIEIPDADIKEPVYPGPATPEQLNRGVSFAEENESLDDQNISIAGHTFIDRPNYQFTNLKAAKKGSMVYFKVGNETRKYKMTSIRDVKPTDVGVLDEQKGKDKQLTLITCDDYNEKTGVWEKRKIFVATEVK

CC(C)CCCc1c(O)ccc(C(=O)c2cc(Cl)c(Cl)[nH]2)c1O [Compound N2576, (4,5-dichloro-1H-pyrrol-2-yl)-[2,4-dihydroxy-3-(4-methyl-pentyl)-phenyl]-methanone]
IC50 (S. aureus sortase A [1]; Sortase A IC50, DABCYL-LPETG-EDANS substrate, 4 h): 47 ± 4.2 µM
IC50 (S. aureus sortase A [1]; SrtA enzymatic activity IC50, text summary, Figure 2A,B, both substrates): < 50 µM
IC50 (S. aureus sortase A [2]): 32 ± 6.3 µM
S. aureus MIC (S. aureus ATCC 25923; 24 h): 5 to 8 µM
MIC (S. aureus ATCC 25923; Staphylococcus aureus, ATCC25923, 24 h): 6.3 ± 0.1 µM (≈ 2.24 µg/mL)
S. aureus MIC [3]: 25 to 80 µM
MIC ([3]; Staphylococcus aureus): 25.2 ± 5.5 µM (≈ 8.98 µg/mL)
S. aureus MIC (S. aureus Newman; Newman): 5 to 8 µM
MIC (S. aureus Newman; Staphylococcus aureus, NEWMAN): 5.8 ± 1.3 µM (≈ 2.07 µg/mL)
IC50 (A549 cells; 72 h): 60 to 90 µM
IC50 (A549 cells; Homo sapiens, A549, 72 h): 88.1 ± 13 µM
IC50 (HepG2 cells; 72 h): 60 to 90 µM
IC50 (HepG2 cells; Homo sapiens, HepG2, 72 h): 65 ± 7.4 µM
concentration giving >90% inhibition on MRSA biofilm formation ([4]; CV assay): 70 µM
IC50 ([4]; Staphylococcus aureus, S. aureus ATCC 33591 (MRSA), biofilm formation, read-out: Biofilm Inhibition IC50): 24.8 µM
concentration giving >90% inhibition of biofilm formation [5]: 4.4 µM
IC50 ([5]; Staphylococcus aureus, NEWMAN, biofilm formation, read-out: Biofilm Inhibition IC50): 2.9 µM
concentration giving >90% inhibition on MRSA preformed biofilms ([6]; CV assay): 280 µM
IC50 ([6]; Staphylococcus aureus, S. aureus ATCC 33591 (MRSA), pre-formed biofilms, read-out: Biofilm Inhibition IC50): > 200 µM
concentration giving >90% inhibition on preformed biofilms [7]: 17 µM
IC50 ([7]; Staphylococcus aureus, pre-formed biofilms, read-out: Biofilm Inhibition IC50): 10 µM
effect on E. coli ATCC 25922 biofilm formation [8]: did not show any effect
IC50 ([9]; Staphylococcus aureus, NEWMAN, read-out: Fibrinogen adherence Inhibition IC50): 5.7 ± 0.8 µM
concentration giving ≥90% prevention of S. aureus Newman adherence to fibrinogen ([9]; compared to untreated wildtype strain): 17 µM
